# Source: US20260125686A1, “COMPOSITIONS AND METHODS FOR MODULATION OF CFTR” (Cystic Fibrosis Foundation, priority 2022, published 2026)
# Target: Exon 22 truncated CFTR (Homo sapiens, UniProt P13569)
# Assay: TECC-24 assay in 16HBEge-W1282X cells
# Type: cell-based
# Design: contain the first 1239 amino acids of a WT CFTR; endogenous in cells
# Settings: for FSK+VX-770 AUC/min: in combination SA-08 10 μM
# Method: Electrophysiology. Clonal lines were seeded at a density of 4.5×10^5 cells cm-2 onto HTS Transwell 24-well filter inserts pre-coated with human collagen type IV. Cells were grown as submerged cultures in MEM (Gibco, 11095) containing 10% FBS and 1% Pen/Strep, and incubated at 37° C. and 5% CO2. Cells were treated from both the basolateral and apical side with fresh medium containing either control (vehicle) or test article for the treatment time indicated in the figure legends. After a total of 7 days, 16HBE cells typically formed electrically tight epithelia with a transepithelial resistance (Rt) of 200-600 Ω·cm2 and CFTR-mediated Cl— equivalent current (Ieq) was determined as described below.
# Prior to functional (Ieq) studies, MEM was replaced with fresh HEPES-buffered (pH 7.4) solutions (assay buffer). A driving force for chloride ions was established through application of a basolateral to apical chloride ion gradient (see buffer composition below). Cell plates were mounted onto an automated robotic assay platform and equilibrated at ˜36° C. for 90 min. After equilibration, transepithelial voltage (Vt) and resistance (Rt) were monitored at ˜5 min intervals using a 24-channel transepithelial current clamp amplifier (TECC-24, EP Design, Bertem, Belgium). Electrode potential differences for each pair of Ag/AgCl voltage electrodes were also monitored at 5 min intervals by taking voltage measurements from a control plate with matching buffer solutions and 16HBE cells that were left untreated. Ieq was calculated from values of Vt and Rt using Ohm's law after correcting for series resistance and (electrode) voltage offsets unrelated to Vt. Ieq traces are plotted as mean±SD (n=3). The first 4 data points reflect baseline Ieq currents prior to sequential stimulation of CFTR with forskolin (10 μM) and VX-770/ivacaftor (1 μM). The last six data points were recorded in the presence of CFTR inhibitor CFTRinh-172 (20 μM). Agonists/antagonists were pre-diluted to 10-fold concentrations in assay buffer and add-ed to either the basolateral (forskolin) or apical (forskolin, VX-770/ivacaftor, and CFTRinh-172) side of the membrane (assay plates only). CFTR-mediated changes in Ieq, (i.e., delta forskolin, delta VX-770, delta CFTRinh-172, or the area under the curve (AUC) between forskolin and CFTRinh-172 addition) are used as a measure of functional CFTR surface expression or treatment-related functional rescue of mutant CFTR.
# Assay buffer: CFTR-mediated transepithelial currents were recorded using a Cl— concentration gradient. The basolateral solution contained (mM): 137 NaCl, 4 KCl, 1.8 CaCl2, 1 MgCl2, 10 HEPES and D-Glucose, adjusted to pH 7.4 with NaOH/HCl ([CI-] total: 146.6 mM). The apical solution was matched to the basolateral except for (mM): 137 Na-gluconate replaced 137 NaCl ([Cl—] total: 9.6 mM).
# The function of Exon 22 truncated CFTR protein was assayed by the transepithelial chloride conductance assay (TECC-24 assay), as depicted in FIG. 15A and FIG. 15B. 16HBEge-W1282X cells were incubated in 0.02% DMSO (vehicle) or VX445/VX661 prior to the TECC assay. Characteristic CFTR responses to forskolin, potentiator (VX-770), and CFTR inhibition (Inh-172) were recorded in the presence and absence of various doses and combinations of ASO treatments. […] ASO treatment further induced a larger chloride channel conductance compared to no ASO treatment.
# The function of various CFTR proteins in the cells can be assessed by comparing the area under curve (AUC) of the induced chloride conductance obtained in the electrophysiology assays. The AUC of various mutant cell lines (e.g., 16HBEge-W1282X cells), with or without treatment, can be normalized to the AUC obtained from cells expressing WT CFTR protein and expressed as either a percentage of WT CFTR (% WT CFTR) or a ratio to WT CFTR (variant/WT CFTR). […]
# Sequence of Exon 22 truncated CFTR (P13569 with tags, fused parts or gaps): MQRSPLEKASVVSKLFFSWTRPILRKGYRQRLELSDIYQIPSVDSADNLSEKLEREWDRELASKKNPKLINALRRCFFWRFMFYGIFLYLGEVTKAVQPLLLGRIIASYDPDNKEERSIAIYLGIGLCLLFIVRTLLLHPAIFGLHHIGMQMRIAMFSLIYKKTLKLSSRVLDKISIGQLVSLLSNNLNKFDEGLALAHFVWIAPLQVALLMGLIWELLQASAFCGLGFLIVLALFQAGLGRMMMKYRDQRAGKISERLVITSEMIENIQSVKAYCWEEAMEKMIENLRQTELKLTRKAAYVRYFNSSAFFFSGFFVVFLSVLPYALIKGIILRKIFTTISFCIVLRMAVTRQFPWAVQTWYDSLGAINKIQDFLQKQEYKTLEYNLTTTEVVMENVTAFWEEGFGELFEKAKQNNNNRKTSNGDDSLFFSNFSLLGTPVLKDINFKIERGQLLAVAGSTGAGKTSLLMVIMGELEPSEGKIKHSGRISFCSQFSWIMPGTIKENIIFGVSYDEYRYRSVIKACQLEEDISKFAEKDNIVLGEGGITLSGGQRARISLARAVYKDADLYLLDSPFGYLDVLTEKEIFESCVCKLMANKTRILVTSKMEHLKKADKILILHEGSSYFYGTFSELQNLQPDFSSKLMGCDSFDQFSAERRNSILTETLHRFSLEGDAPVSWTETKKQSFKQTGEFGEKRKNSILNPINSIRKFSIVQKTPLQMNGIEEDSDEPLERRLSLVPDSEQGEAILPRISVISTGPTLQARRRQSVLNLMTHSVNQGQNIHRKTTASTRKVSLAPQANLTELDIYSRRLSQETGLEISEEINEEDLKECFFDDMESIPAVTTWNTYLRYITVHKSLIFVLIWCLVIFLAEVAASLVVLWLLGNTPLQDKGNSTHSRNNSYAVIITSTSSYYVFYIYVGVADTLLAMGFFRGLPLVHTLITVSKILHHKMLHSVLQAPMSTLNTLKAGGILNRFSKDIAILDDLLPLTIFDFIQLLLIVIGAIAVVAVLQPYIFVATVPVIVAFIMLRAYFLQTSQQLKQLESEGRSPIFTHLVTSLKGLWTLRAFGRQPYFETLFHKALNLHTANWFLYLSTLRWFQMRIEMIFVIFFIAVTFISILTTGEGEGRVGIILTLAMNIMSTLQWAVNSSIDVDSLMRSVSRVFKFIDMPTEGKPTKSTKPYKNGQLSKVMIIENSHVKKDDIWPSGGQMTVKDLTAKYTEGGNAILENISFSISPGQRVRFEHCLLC
substance,measurement,setting,value
"aaagcaagcagtgttcaaatct (antisense AAAGCAAGCAGTGTTCAAATCT; all 2'-MOE, all phosphorothioate, methylation of C not given here) [SD10, PS backbone, 2′-MOE]","chloride conductance AUC, of WT","10 μM SD10, with Trikafta",about 9%
same,increase in AUC (of WT),"10 μM SD10, without Trikafta treatment",2.9%
same,FSK+VX-770 AUC/min,"(+) VX-445/VX-661 (3/3 μM), SD-10 100 μM",11.5+/−0.5 μA/cm^2
same,FSK+VX-770 AUC/min,"(+) VX-445/VX-661 (3/3 μM), SD-10 printed '(μM)' / 10 μM",10.4+/−1.2 μA/cm^2
same,FSK+VX-770 AUC/min,"(−) VX-445/VX-661, SD-10 100 μM",4.6+/−0.4 μA/cm^2
same,FSK+VX-770 AUC/min,"(−) VX-445/VX-661, SD-10 printed '(μM)' / 10 μM",5.5+/−0.7 μA/cm^2
"ataaggtaaaagtgatgggatc (antisense ATAAGGTAAAAGTGATGGGATC; all 2'-MOE, all phosphorothioate, methylation of C not given here) [SA8, PS backbone, 2′-MOE]","chloride conductance AUC, of WT","0.1 μM SA08, with Trikafta",about 3.1%
same,"chloride conductance AUC, of WT","1 μM SA08, with Trikafta",~4.9%
same,"chloride conductance AUC, of WT","2 μM SA08, with Trikafta",~6.2%
elexacaftor/ivacaftor/tezacaftor [Trikafta],"Ex22 truncated CFTR function, of WT CFTR function","Trikafta (3/3 μM VX-661/445 48 h, 3 μM VX-770), no ASO",~3%
